Test results: patent US9556179B2 (BRISTOL-MYERS SQUIBB COMPANY, priority 2012, dated 2017)
pIC50: −log10 of the molar value.

Columns and labels:
CK1δ = CK1δ (Homo sapiens (Human), UniProt P48730); assay: CK1δ kinase assay (Caliper LABCHIP electrophoretic separation of fluoresceinated peptide substrate and product); type: biochemical; details: 200 pM enzyme, 50 μM ATP, 22 hours at room temperature
In short: (§1)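 Compounds, taken from 10 mM DMSO stocks, are titrated at eleven concentrations. Kinase reactions proceed for 22 hours at room temperature and are quenched with EDTA. Substrate and product are resolved electrophoretically, and IC50 values are fitted by non-linear regression.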

CK1ε = CK1ε (Homo sapiens (Human), UniProt P49674); assay: CK1ε kinase assay (Caliper LABCHIP electrophoretic separation of fluoresceinated peptide substrate and product); type: biochemical; details: 200 pM enzyme, 50 μM ATP, 22 hours at room temperature
In short: as §1

Chain of CK1δ (P48730 whole entry): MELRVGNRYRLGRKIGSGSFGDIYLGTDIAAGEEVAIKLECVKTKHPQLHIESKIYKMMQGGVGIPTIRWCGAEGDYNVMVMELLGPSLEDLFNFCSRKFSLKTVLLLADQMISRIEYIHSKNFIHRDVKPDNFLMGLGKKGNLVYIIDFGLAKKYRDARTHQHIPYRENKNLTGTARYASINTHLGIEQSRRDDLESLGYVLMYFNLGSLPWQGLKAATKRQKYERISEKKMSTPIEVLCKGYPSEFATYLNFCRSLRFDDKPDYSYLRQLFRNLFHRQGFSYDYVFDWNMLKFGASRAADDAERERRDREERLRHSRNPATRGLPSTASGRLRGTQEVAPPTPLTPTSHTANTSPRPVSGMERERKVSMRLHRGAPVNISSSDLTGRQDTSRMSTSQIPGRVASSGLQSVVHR
Chain of CK1ε (P49674 whole entry): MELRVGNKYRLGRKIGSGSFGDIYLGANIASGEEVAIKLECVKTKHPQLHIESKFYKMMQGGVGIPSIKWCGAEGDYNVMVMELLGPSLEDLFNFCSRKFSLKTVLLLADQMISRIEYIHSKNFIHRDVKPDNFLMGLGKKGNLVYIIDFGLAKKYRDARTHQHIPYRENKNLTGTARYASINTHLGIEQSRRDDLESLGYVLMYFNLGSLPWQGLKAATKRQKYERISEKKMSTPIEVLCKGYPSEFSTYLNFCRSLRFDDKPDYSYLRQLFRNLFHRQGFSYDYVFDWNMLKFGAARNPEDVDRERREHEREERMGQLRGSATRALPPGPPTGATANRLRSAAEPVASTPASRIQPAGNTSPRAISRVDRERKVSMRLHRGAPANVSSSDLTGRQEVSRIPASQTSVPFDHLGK

pIC50 (CK1δ) | pIC50 (CK1ε) | Compound
9.04 | 8.66 | Cc1nc(-c2ccc(F)cc2)c(-c2ccc3nc(NC(=O)c4c[nH]c5ncccc45)cn3n2)n1C [Compound 343, N-(6-(4-(4-fluorophenyl)-1,2-dimethyl-1H-imidazol-5-yl)imidazo[1,2-b]pyridazin-2-yl)-1H-pyrrolo[2,3-b] pyridine-3-carboxamide]
7.84 | 6.95 | Cc1nc(-c2ccc(F)cc2)c(-c2ccc3nc(NC(=O)c4cccc5cccnc45)cn3n2)n1C [Compound 344, N-(6-(4-(4-fluorophenyl)-1,2-dimethyl-1H-imidazol-5-yl)imidazo[1,2-b]pyridazin-2-yl)-8-quinolinecarboxamide]
9.42 | 8.92 | COc1cccc2[nH]c(C(=O)Nc3cn4nc(-c5c(-c6ccc(F)cc6)nc(C)n5C)ccc4n3)cc12 [Compound 347, N-(6-(4-(4-fluorophenyl)-1,2-dimethyl-1H-imidazol-5-yl)imidazo[1,2-b]pyridazin-2-yl)-4-methoxy-1H-indole-2-carboxamide]
8.79 | 8.24 | Cc1nc(-c2ccc(F)cc2)c(-c2ccc3nc(NC(=O)c4cc[nH]c4)cn3n2)n1C [Compound 348, N-(6-(4-(4-fluorophenyl)-1,2-dimethyl-1H-imidazol-5-yl)imidazo[1,2-b]pyridazin-2-yl)-1H-pyrrole-3-carboxamide]
9.23 | 8.49 | Cc1nc(-c2ccc(F)cc2)c(-c2ccc3nc(NC(=O)c4ccnn4C)cn3n2)n1C [Compound 352, N-(6-(4-(4-fluorophenyl)-1,2-dimethyl-1H-imidazol-5-yl)imidazo[1,2-b]pyridazin-2-yl)-1-methyl-1H-pyrazole-5-carboxamide]
8.31 | 7.13 | CC(=O)N1CCCC1C(=O)Nc1cn2nc(-c3c(-c4ccc(F)cc4)nc(C)n3C)ccc2n1 [Compound 353, 1-acetyl-N-(6-(4-(4-fluoro-phenyl)-1,2-dimethyl-1H-imidazol-5-yl)imidazo[1,2-b]pyridazin-2-yl)-L-pro-linamide]
8.85 | 7.97 | Cc1nc(-c2ccc(F)cc2)c(-c2ccc3nc(NC(=O)c4ccn(C)n4)cn3n2)n1C [Compound 354, N-(6-(4-(4-fluorophenyl)-1,2-dimethyl-1H-imidazol-5-yl)imidazo[1,2-b]pyridazin-2-yl)-1-methyl-1H-pyrazole-3-carboxamide]
8.42 | 7.41 | Cc1nc(-c2ccc(F)cc2)c(-c2ccc3nc(NC(=O)c4cocn4)cn3n2)n1C [Compound 355, N-(6-(4-(4-fluorophenyl)-1,2-dimethyl-1H-imidazol-5-yl)imidazo[1,2-b]pyridazin-2-yl)-1,3-oxazole-4-carboxamide]
9.29 | 8.72 | Cc1nc(-c2ccc(F)cc2)c(-c2ccc3nc(NC(=O)c4ccc(C#N)cc4)cn3n2)n1C [Compound 356, 4-cyano-N-(6-(4-(4-fluoro-phenyl)-1,2-dimethyl-1H-imidazol-5-yl)imidazo[1,2-b]pyridazin-2-yl)benzamide]
8.83 | 7.75 | Cc1nc(-c2ccc(F)cc2)c(-c2ccc3nc(NC(=O)c4cccn4C)cn3n2)n1C [Compound 357, N-(6-(4-(4-fluorophenyl)-1,2-dimethyl-1H-imidazol-5-yl)imidazo[1,2-b]pyridazin-2-yl)-1-methyl-1H-pyrrole-2-carboxamide]
9.27 | 8.41 | Cc1nc(-c2ccc(F)cc2)c(-c2ccc3nc(NC(=O)c4ccc[nH]4)cn3n2)n1C [Compound 358, N-(6-(4-(4-fluorophenyl)-1,2-dimethyl-1H-imidazol-5-yl)imidazo[1,2-b]pyridazin-2-yl)-1H-pyrrole-2-carbox-amide]
9.22 | 8.50 | Cc1nc(-c2ccc(F)cc2)c(-c2ccc3nc(NC(=O)c4cnn(C)c4)cn3n2)n1C [Compound 359, N-(6-(4-(4-fluorophenyl)-1,2-dimethyl-1H-imidazol-5-yl)imidazo[1,2-b]pyridazin-2-yl)-1-methyl-1H-pyrazole-4-carboxamide]
7.13 | 5.90 | Cc1nocc1C(=O)Nc1cn2nc(-c3c(-c4ccc(F)cc4)nc(C)n3C)ccc2n1 [Compound 361, N-(6-(4-(4-fluorophenyl)-1,2-dimethyl-1H-imidazol-5-yl)imidazo[1,2-b]pyridazin-2-yl)-3-methyl-4-isoxazole-carboxamide]
8.20 | 7.06 | Cc1nc(-c2ccc(F)cc2)c(-c2ccc3nc(NC(=O)c4cn(C)cn4)cn3n2)n1C [Compound 362, N-(6-(4-(4-fluorophenyl)-1,2-dimethyl-1H-imidazol-5-yl)imidazo[1,2-b]pyridazin-2-yl)-1-methyl-1H-imidazole-4-carboxamide]
8.63 | 7.58 | CC(=O)N1CCCC1C(=O)Nc1cn2nc(-c3c(-c4ccc(F)cc4)nc(C)n3C)ccc2n1 (centres unmarked) [Compound 363, 1-acetyl-N-(6-(4-(4-fluoro-phenyl)-1,2-dimethyl-1H-imidazol-5-yl)imidazo[1,2-b]pyridazin-2-yl)prolinamide]
9.25 | 8.40 | Cc1nc(-c2ccc(F)cc2)c(-c2ccc3nc(NC(=O)c4cn[nH]c4)cn3n2)n1C [Compound 364, N-(6-(4-(4-fluorophenyl)-1,2-dimethyl-1H-imidazol-5-yl)imidazo[1,2-b]pyridazin-2-yl)-1H-pyrazole-4-carboxamide]
6.99 | 5.96 | Cc1oncc1C(=O)Nc1cn2nc(-c3c(-c4ccc(F)cc4)nc(C)n3C)ccc2n1 [Compound 365, N-(6-(4-(4-fluorophenyl)-1,2-dimethyl-1H-imidazol-5-yl)imidazo[1,2-b]pyridazin-2-yl)-5-methyl-4-isoxazole-carboxamide]
8.76 | 7.60 | Cc1nc(-c2ccc(F)cc2)c(-c2ccc3nc(NC(=O)C4CCC(=O)N4)cn3n2)n1C (centres unmarked) [Compound 366, N-(6-(4-(4-fluorophenyl)-1,2-dimethyl-1H-imidazol-5-yl)imidazo[1,2-b]pyridazin-2-yl)-5-oxoprolinamide]
8.44 | 7.30 | Cc1nnc(C(=O)Nc2cn3nc(-c4c(-c5ccc(F)cc5)nc(C)n4C)ccc3n2)o1 [Compound 367, N-(6-(4-(4-fluorophenyl)-1,2-dimethyl-1H-imidazol-5-yl)imidazo[1,2-b]pyridazin-2-yl)-5-methyl-1,3,4-oxa-diazole-2-carboxamide]
8.85 | 8.06 | Cc1cc(C(=O)Nc2cn3nc(-c4c(-c5ccc(F)cc5)nc(C)n4C)ccc3n2)nn1C [Compound 369, N-(6-(4-(4-fluorophenyl)-1,2-dimethyl-1H-imidazol-5-yl)imidazo[1,2-b]pyridazin-2-yl)-1,5-dimethyl-1H-pyrazole-3-carboxamide]
8.95 | 7.79 | Cc1nc(-c2ccc(F)cc2)c(-c2ccc3nc(NC(=O)c4cnn[nH]4)cn3n2)n1C [Compound 370, N-(6-(4-(4-fluorophenyl)-1,2-dimethyl-1H-imidazol-5-yl)imidazo[1,2-b]pyridazin-2-yl)-1H-1,2,3-trizole-4-carboxamide]
8.60 | 7.70 | Cc1nc(C(=O)Nc2cn3nc(-c4c(-c5ccc(F)cc5)nc(C)n4C)ccc3n2)co1 [Compound 371, N-(6-(4-(4-fluorophenyl)-1,2-dimethyl-1H-imidazol-5-yl)imidazo[1,2-b]pyridazin-2-yl)-2-methyl-1,3-oxazole-4-carboxamide]
